Data set [1] can be described thus: Rate of clearance of the drug substance (total systemic clearance). It is filed as in vivo. Conditions: human, plasma; in adults. From the text: C is expressed in units of ml/hr and is the rate of clearance of the drug substance. Clearance may be determined experimentally in vivo by conventional known means using standard tests. For example it can be determined from the plasma concentration in response to a defined input of drug using the equation given below: Clearance (ml/hr)=Input rate (ng/hr)/Total plasma concentration (ng/ml)

Data set [2] can be described thus: Peak plasma concentration after oral dosing of farglitazar. It is filed as in vivo, human. An excerpt:
Z is expressed in units of ng/ml and is the target local free (i.e. unbound) concentration that is expected to have a therapeutic effect against the skin condition. In the case of PPAR gamma agonists, Z should correspond to the peak plasma free drug concentration generated by dosing these drugs orally to treat effectively Type II diabetes mellitus. The appropriate value of Z may be determined experimentally in vivo by conventional known means using standard protocols.
The value Z for farglitazar is 0.31 ng/ml [Peak plasma concentration for a 5 mg dose is about 157 ng/ml; 0.31 is 157*(100-99.8)/100].

The nature of a further data set: Plasma bound fraction. It is filed as in vitro ADME. An excerpt: PBF is the plasma bound fraction. Plasma bound fraction may be determined experimentally in vitro by conventional known means using standard tests (preferably a method employing equilibrium dialysis).
Data set [3] has as its system fasting plasma glucose in patients with type II diabetes. Conditions: cited from earlier work.

Where two headings read alike, the source gives them in different places.

In data set [1], `Cc1oc(-c2ccccc2)nc1CCOc1ccc(C[C@H](Nc2ccccc2C(=O)c2ccccc2)C(=O)O)cc1` [farglitazar, N-(2-benzoylphenyl)-O-[2-(5-methyl-2-phenyl-4-oxazolyl)ethyl]-L-tyrosine] gave a clearance of 250 mL/min. Besides, in data set [2] (5 mg dose, total drug), the Peak plasma concentration entry was “about 157 ng/ml”. The “Z, target local free (unbound) concentration = peak plasma free drug concentration” value in data set [2] (157*(100-99.8)/100, 5 mg dose) is 0.31 ng/mL. This compound displayed a Plasma bound fraction in “Plasma bound fraction” of 99.8%.

Take `CN(CCOc1ccc(CC2SC(=O)NC2=O)cc1)c1ccccn1` (stereo not drawn) [rosiglitazone, 5-[4-[2-(N-methyl-N-(2-pyridyl)amino)ethoxy]benzyl]thiazolidine-2,4-dione]: the “Time to achieve a reduction of fasting plasma glucose by 2 mmol/l” value is “about 8 weeks” in data set [3] (2 mg b.i.d. dosage regimen) and “about 4 weeks” in data set [3] (4 mg b.i.d. dosage regimen).

As a reminder, the clearance is the rate of elimination divided by the concentration. Lower therefore signals a low capacity for elimination.
